Experimental data taken from patent publication US5716928A, “Use of essential oils to increase bioavailability of oral pharmaceutical compounds” (priority 1995, dated 1998).

Test system: rat cytochrome P450 3A
Conditions: for % inhibition of cyclosporine metabolism, repeat 0.0001(SD) (Table 2) / % inhibition of cyclosporine metabolism, 0.0001% (Table 2): oil ingredient 0.0001 wt. %; for % inhibition of cyclosporine metabolism, repeat 0.0001(SD) (Table 2): repeat assay(s), SD in parentheses; for % inhibition of cyclosporine metabolism, 0.0001% (Table 2) / % inhibition of cyclosporine metabolism, 0.001% (Table 2) / % inhibition of cyclosporine metabolism, 0.01% (Table 2): from solvent baseline; for % inhibition of cyclosporine metabolism, 0.001% (Table 2): oil ingredient 0.001 wt. %; for % inhibition of cyclosporine metabolism, 0.01% (Table 2): oil ingredient 0.01 wt. %

SMILES: CC12CCC(CC1=O)C2(C)C (racemic) [Camphor-(±), 1,7,7-Trimethylbicyclo [2.2.1] heptan-2-one]
- % inhibition of cyclosporine metabolism, repeat 0.001 (SD) (Table 2) (microsomes): 53(3) %

SMILES: C=CC(C)(O)CCC=C(C)C (racemic) [Linalool-(±), 3,7-Dimethyl-1,6-octadien-3-ol]
- % inhibition of cyclosporine metabolism, repeat 0.0001(SD) (Table 2): -7(9) %
- % inhibition of cyclosporine metabolism, 0.0001% (Table 2): 41%
- % inhibition of cyclosporine metabolism, 0.001% (Table 2): 72.0%
- % inhibition of cyclosporine metabolism, 0.01% (Table 2): 85%

SMILES: CCC=CCC1C(=O)CCC1CC(=O)OC (racemic) [Methyl Jasmonate-(±), Methyl-3-oxo-2-(2-pentenyl)-cyclopentane acetate]
- % inhibition of cyclosporine metabolism, 0.0001% (Table 2): -27%
- % inhibition of cyclosporine metabolism, 0.001% (Table 2): 65%

SMILES: C=C1C2CCC(C2)C1(C)C (single isomer, unassigned) [Camphene-(+), 2,2-Dimethyl-3-methylenebicyclo[2.2.1]heptane]
- % inhibition of cyclosporine metabolism, 0.0001% (Table 2): -49%
- % inhibition of cyclosporine metabolism, 0.001% (Table 2): 12.4%

SMILES: C=C(C)C1CC=C(C)C(O)C1 (single isomer, unassigned) [Carveol-(-), p-Mentha-6,8-dien-2-ot]
- % inhibition of cyclosporine metabolism, 0.0001% (Table 2): 2%
- % inhibition of cyclosporine metabolism, 0.001% (Table 2): 60%

SMILES: CC=C(C)C=CC=C(C)C [Allo Ocimene, 2,6-Dimethyl-2,4,6-octatriene]
- % inhibition of cyclosporine metabolism, 0.0001% (Table 2): 6%
- % inhibition of cyclosporine metabolism, 0.001% (Table 2): 22%

SMILES: C/C=C/c1ccc(OC)cc1 [Anethole, trans-, 4-Propenylanisole]
- % inhibition of cyclosporine metabolism, 0.001% (Table 2): 53%
- % inhibition of cyclosporine metabolism, 0.01% (Table 2): 100%

SMILES: O=C(/C=C/c1ccccc1)OCc1ccccc1 [Benzyl Cinnamate, Benzyl 3-phenylpropenoic acid]
- % inhibition of cyclosporine metabolism, 0.0001% (Table 2): 7%
- % inhibition of cyclosporine metabolism, 0.001% (Table 2): -45%

SMILES: COc1cc(CNC(=O)CCCC/C=C/C(C)C)ccc1O [Capsaicin, trans-8-Methyl-N-vanillyl-6 nonenamide]
- % inhibition of cyclosporine metabolism, 0.0001% (Table 2): 27%
- % inhibition of cyclosporine metabolism, 0.001% (Table 2): 68%

SMILES: Cc1ccc(C(C)C)cc1O [Carvacrol, 5-isoPropyl-2-methylphenol]
- % inhibition of cyclosporine metabolism, 0.0001% (Table 2): 11%
- % inhibition of cyclosporine metabolism, 0.001% (Table 2): 93%
- % inhibition of cyclosporine metabolism, 0.01% (Table 2): 97%

SMILES: C=C(C)[C@@H]1CC=C(C)C(=O)C1 [Carvone-(R)-(-), p-Mentha-6,8-dien-2-one]
- % inhibition of cyclosporine metabolism, 0.0001% (Table 2): 27%
- % inhibition of cyclosporine metabolism, 0.001% (Table 2): 69%
- % inhibition of cyclosporine metabolism, 0.01% (Table 2): 100%

SMILES: C=C(C)[C@H]1CC=C(C)C(=O)C1 [Carvone-(S)-(+), p-Mentha-6,8-dien-2-one]
- % inhibition of cyclosporine metabolism, 0.0001% (Table 2): 30%
- % inhibition of cyclosporine metabolism, 0.001% (Table 2): 70.5%

SMILES: C=C1CC/C=C(\C)CC[C@@H]2[C@@H]1CC2(C)C [Caryophyllene, trans-(-), β Caryophyllene]
- % inhibition of cyclosporine metabolism, 0.0001% (Table 2): 26%
- % inhibition of cyclosporine metabolism, 0.001% (Table 2): 85%

SMILES: O=C/C=C/c1ccccc1 [Cinnamic Aldehyde, trans-, 3-Phenylpropenaldehyde]
- % inhibition of cyclosporine metabolism, 0.001% (Table 2): 29.0%
- % inhibition of cyclosporine metabolism, 0.01% (Table 2): 78%

SMILES: CC(C)=CCC/C(C)=C/C=O [Citral]
- % inhibition of cyclosporine metabolism, 0.0001% (Table 2): 44%
- % inhibition of cyclosporine metabolism, 0.001% (Table 2): 54%
- % inhibition of cyclosporine metabolism, 0.01% (Table 2): 99%

SMILES: CC(C)=CCCC(C)CCO (stereo not drawn) [Citronellol-(DL)-(β), 3,7-Dimethyl-6-octen-1-ol]
- % inhibition of cyclosporine metabolism, repeat 0.0001(SD) (Table 2): 35(4) %
- % inhibition of cyclosporine metabolism, 0.0001% (Table 2): 41%
- % inhibition of cyclosporine metabolism, 0.001% (Table 2): 86%
- % inhibition of cyclosporine metabolism, 0.01% (Table 2): 95%

SMILES: C=CCc1ccc(OC)cc1 [Estragole, 4-Allylanisole]
- % inhibition of cyclosporine metabolism, 0.0001% (Table 2): 7%
- % inhibition of cyclosporine metabolism, 0.001% (Table 2): 69.2%
- % inhibition of cyclosporine metabolism, 0.01% (Table 2): 100%

SMILES: CCOC(=O)/C=C/c1ccccc1 [Ethyl Cinnamate, trans-, Ethyl 3-phenylpropenoic acid]
- % inhibition of cyclosporine metabolism, 0.0001% (Table 2): -13%
- % inhibition of cyclosporine metabolism, 0.001% (Table 2): -16%

SMILES: CCOc1cc(C=O)ccc1O [Ethyl Vanillin, 3-Ethoxy-4-hydroxybenzaledhyde]
- % inhibition of cyclosporine metabolism, 0.01% (Table 2): 58%

SMILES: C=CCc1ccc(O)c(OC)c1 [Eugenol, 4-Allyl-2-methoxyphenol]
- % inhibition of cyclosporine metabolism, 0.0001% (Table 2): 9.8%
- % inhibition of cyclosporine metabolism, 0.001% (Table 2): 66%
- % inhibition of cyclosporine metabolism, 0.01% (Table 2): 100%

SMILES: CC(C)=CCC/C(C)=C/CC/C(C)=C/CO [Farnesol. trans-, trans-, 3,7,11-Trimethyl-2,6,10-dodecatrien-1-ol]
- % inhibition of cyclosporine metabolism, 0.0001% (Table 2): 49%
- % inhibition of cyclosporine metabolism, 0.001% (Table 2): 82%

SMILES: CC1(C)[C@H]2CC[C@](C)(C2)[C@H]1O [Fenchol-(1R)-endo-(+), 1,3,3-Trimethylbicyclo [2.2.1] heptan-2-ol]
- % inhibition of cyclosporine metabolism, 0.0001% (Table 2): 18%
- % inhibition of cyclosporine metabolism, 0.001% (Table 2): 74%
- % inhibition of cyclosporine metabolism, 0.01% (Table 2): 100%

SMILES: CC1(C)C(=O)[C@]2(C)CC[C@H]1C2 [Fenchone-(1R)-(-), 1,3,3-Trimethylbicyclo [2.2.1] heptan-2-one]
- % inhibition of cyclosporine metabolism, 0.0001% (Table 2): 14%
- % inhibition of cyclosporine metabolism, 0.001% (Table 2): 38%

SMILES: CC(=O)OC/C=C(\C)CCC=C(C)C [Geranyl Acetate, trans-3,7-Dimethyl-2,6-octadien-1-yl acetate]
- % inhibition of cyclosporine metabolism, 0.001% (Table 2): 51.5%
- % inhibition of cyclosporine metabolism, 0.01% (Table 2): 73%

SMILES: CC/C=C\CC1=C(C)CCC1=O [Jasmone, cis-, 3-Methyl-2-(2-pentenyl)-2-cyclopenten-1-one]
- % inhibition of cyclosporine metabolism, 0.0001% (Table 2): 16.0%
- % inhibition of cyclosporine metabolism, 0.001% (Table 2): 68%

SMILES: CC(=O)N1CCN(c2ccc(OCC3COC(Cn4ccnc4)(c4ccc(Cl)cc4Cl)O3)cc2)CC1 (stereo not drawn) [Ketoconazole, reference compound]
- % inhibition of cyclosporine metabolism, reference compound at 0.000001% (Table 3) (0.000001 %): 8%
- % inhibition of cyclosporine metabolism, reference compound at 0.000005% (Table 3) (0.000005 %): 20%
- % inhibition of cyclosporine metabolism, reference compound at 0.00001% (Table 3) (0.00001 %): 42%
- % inhibition of cyclosporine metabolism, reference compound at 0.00005% (Table 3) (0.00005 %): 100%

SMILES: C=C(C)[C@H]1CC=C(C)CC1 [Limonene-(R)-(+), p-Mentha-1,8-diene]
- % inhibition of cyclosporine metabolism, 0.001% (Table 2): 20%
- % inhibition of cyclosporine metabolism, 0.01% (Table 2): 84%

SMILES: C=C(C)[C@@H]1CC=C(C)CC1 [Limonene-(S)-(-), p-Mentha-1,8-diene]
- % inhibition of cyclosporine metabolism, 0.001% (Table 2): 30%
- % inhibition of cyclosporine metabolism, 0.01% (Table 2): 82.3%

SMILES: C=CC(C)(CCC=C(C)C)OC(C)=O (stereo not drawn) [Linalyl Acetate, 3,7-Dimethyl-1,6-octadien-3-yl acetate]
- % inhibition of cyclosporine metabolism, 0.001% (Table 2): 55.8%
- % inhibition of cyclosporine metabolism, 0.01% (Table 2): 100%

SMILES: COC(=O)c1ccccc1N [Mcthyl Anthranilate, Methyl 2-aminobenzoate]
- % inhibition of cyclosporine metabolism, 0.0001% (Table 2): -7%
- % inhibition of cyclosporine metabolism, 0.001% (Table 2): 23%

SMILES: CC(C)[C@@H]1CC[C@@H](C)CC1=O [Menthone-(-), p-Menthan-3-one]
- % inhibition of cyclosporine metabolism, 0.0001% (Table 2): 14%
- % inhibition of cyclosporine metabolism, 0.001% (Table 2): 52%

SMILES: C=CC(=C)CCC=C(C)C [Myrcene-β, 7-Methyl-3-methylene-1,6-octadiene]
- % inhibition of cyclosporine metabolism, 0.0001% (Table 2): 0%
- % inhibition of cyclosporine metabolism, 0.001% (Table 2): 13%

SMILES: C=C1CC[C@H]2C[C@@H]1C2(C)C [Pinene-(1S)-(-)-β, 6,6-Dimethyl-2-methylenebicyclo[3.1.1]heptane]
- % inhibition of cyclosporine metabolism, 0.0001% (Table 2): -10%
- % inhibition of cyclosporine metabolism, 0.001% (Table 2): 60%
- % inhibition of cyclosporine metabolism, 0.01% (Table 2): 88%

SMILES: CC(C)=C1CC[C@@H](C)CC1=O [Pulegone-(R)-(+), p-Menth-4(8)-en-3-one]
- % inhibition of cyclosporine metabolism, 0.0001% (Table 2): -17%
- % inhibition of cyclosporine metabolism, 0.001% (Table 2): 31%

SMILES: CC1=CCC(O)(C(C)C)CC1 (stereo not drawn) [Terpinen-4-ol, p-Menth-1-en-4-ol]
- % inhibition of cyclosporine metabolism, 0.0001% (Table 2): 3.81%
- % inhibition of cyclosporine metabolism, 0.001% (Table 2): 80%
- % inhibition of cyclosporine metabolism, 0.01% (Table 2): 100%

SMILES: CC1=CC=C(C(C)C)CC1 [Terpinene-α, p-Mentha-1,3-diene]
- % inhibition of cyclosporine metabolism, 0.0001% (Table 2): -6%
- % inhibition of cyclosporine metabolism, 0.001% (Table 2): 28%

SMILES: CC1=CCC(C(C)(C)O)CC1 (stereo not drawn) [Terpineol-α, p-Menth-1-en-8-ol]
- % inhibition of cyclosporine metabolism, 0.0001% (Table 2): 13.4%
- % inhibition of cyclosporine metabolism, 0.001% (Table 2): 86%
- % inhibition of cyclosporine metabolism, 0.01% (Table 2): 100%
